Values quoted from earlier work as cited in PubChem BioAssay AID1259409 (Chemical Carcinogenesis Research Information System (CCRIS), 2018).
Several values for one entry are separate records, joined by “and”; a condition that tells them apart may be missing. Identical values can stand only once.

Tested on: rodent chemically induced tumor inhibition, incidence and multiplicity
Test: CCRIS tumor inhibitor studies

CN1C(=O)NC(c2ccccc2)(c2ccccc2)C1=O
tumour outcome (control, treated, inhibition, significance) (Carcinogen: 7,12-DIEMTHYLBENZ[A]ANTHRACENE, 57-97-6, Dose [Inhibitor]: 0, 200 UG/D IN ETHANOL/DRINKING WATER SOLUTION (1:500 ML) ADMINISTERED TO PINEALECTOMIZED RATS BEGINNING 1 WK POST CARCI, Route [Inhibitor]: ORAL, Species: RAT, Strain/Sex: SPRAGUE-DAWLEY/FEMALE, Target Tissue: Type of Lesion: MAMMARY GLAND: TUMOR, Dose [Carcinogen]: 10 MG/ML SESAME OIL ADMINISTERED ONCE AT 55 D OF AGE, Promoter: NONE USED): 80%, 36%, 55%, p<0.05
tumour outcome (control, treated, inhibition, significance) (Carcinogen: 7,12-DIMETHYLBENZ[A]ANTHRACENE, 57-97-6, Dose [Inhibitor]: 0, 200 UG/D ETHANOL/DRINKING WATER SOLUTION (1:500 ML) ADMINISTERED TO INTACT RATS BEGINNING 1 WK POST CARCINOGEN DOSE A, Route [Inhibitor]: ORAL, Species: RAT, Strain/Sex: SPRAGUE-DAWLEY/FEMALE, Target Tissue: Type of Lesion: MAMMARY GLAND: TUMOR, Dose [Carcinogen]: 10 MG/ML SESAME OIL ADMINISTERED ONCE AT 55 D OF AGE, Promoter: NONE USED): 88%, 24%, 73%, p<0.005
tumour outcome (control, treated, inhibition, significance) (Carcinogen: 7,12-DIMETHYLBENZ[A]ANTHRACENE, 57-97-6, Dose [Inhibitor]: 0, 200 UG/D IN ETHANOL/DRINKING WATER SOLUTION (1:500 ML) ADMINISTERED TO INTACT RATS BEGINNING 1 WK POST CARCINOGEN DOS, Route [Inhibitor]: ORAL, Species: RAT, Strain/Sex: SPRAGUE-DAWLEY/FEMALE, Target Tissue: Type of Lesion: MAMMARY GLAND: TUMOR, Dose [Carcinogen]: 10 MG/ML SESAME OIL ADMINISTERED ONCE AT 55 D OF AGE, Promoter: NONE USED): 70%, 16%, 77%, p<0.005
tumour outcome (control, treated, inhibition, significance) (Carcinogen: 7,12-DIMETHYLBENZ[A]ANTHRACENE, 57-97-6, Dose [Inhibitor]: 0, 200 UG/D IN ETHANOL/DRINKING WATER SOLUTION (1:500 ML) ADMINISTERED TO INTACT RATS BEGINNING 1 WK PRIOR TO CARCINOGEN, Route [Inhibitor]: ORAL, Species: RAT, Strain/Sex: SPRAGUE-DAWLEY/FEMALE, Target Tissue: Type of Lesion: MAMMARY GLAND: TUMOR, Dose [Carcinogen]: 10 MG/ML SESAME OIL ADMINISTERED ONCE AT 55 D OF AGE, Promoter: NONE USED): 70%, 27%, 61%, p<0.05 and 88%, 38%, 57%, p<0.05
tumour outcome (control, treated, inhibition, significance) (Carcinogen: 7,12-DIMETHYLBENZ[A]ANTHRACENE, 57-97-6, Dose [Inhibitor]: 0, 200 UG/D IN ETHANOL/DRINKING WATER SOLUTION (1:500 ML) ADMINISTERED TO PINEALECTOMIZED RATS BEGINNING 1 WK POST CARCI, Route [Inhibitor]: ORAL, Species: RAT, Strain/Sex: SPRAGUE-DAWLEY/FEMALE, Target Tissue: Type of Lesion: MAMMARY GLAND: TUMOR, Dose [Carcinogen]: 10 MG/ML SESAME OIL ADMINISTERED ONCE AT 55 D OF AGE, Promoter: NONE USED): 90%, 31%, 66%, p<0.005
tumour outcome (control, treated, inhibition, significance) (Carcinogen: 7,12-DIMETHYLBENZ[A]ANTHRACENE, 57-97-6, Dose [Inhibitor]: 0, 200 UG/D IN ETHANOL/DRINKING WATER SOLUTION (1:500 ML) ADMINISTERED TO PINEALECTOMIZED RATS BEGINNING 1 WK PRIOR TO C, Route [Inhibitor]: ORAL, Species: RAT, Strain/Sex: SPRAGUE-DAWLEY/FEMALE, Target Tissue: Type of Lesion: MAMMARY GLAND: TUMOR, Dose [Carcinogen]: 10 MG/ML SESAME OIL ADMINISTERED ONCE AT 55 D OF AGE, Promoter: NONE USED): 90%, 64%, 29%, not calculated
tumour outcome (control, treated, inhibition, significance) (Carcinogen: 7,12-DIMETHYLBENZ[A]ANTHRACENE, 57-97-6, Dose [Inhibitor]: 0, 200 UG/D IN ETHANOL/DRINKING WATER SOLUTION. (1:500 ML) ADMINISTERED TO PINEALECTOMIZED RATS BEGINNING 1 WK PRIOR TO, Route [Inhibitor]: ORAL, Species: RAT, Strain/Sex: SPRAGUE-DAWLEY/FEMALE, Target Tissue: Type of Lesion: MAMMARY GLAND: TUMOR, Dose [Carcinogen]: 10 MG/ML SESAME OIL ADMINISTERED ONCE AT 55 D OF AGE, Promoter: NONE USED): 80%, 65%, 19%, not calculated

Cc1cc(=O)cc(C)o1
tumour outcome (control, treated, inhibition, significance) (Carcinogen: BENZO[A]PYRENE, 50-32-8, Dose [Inhibitor]: 0.034 MMOL/G IN DIET FOR 5 WK (STUDY DURATION: 21 WK), Route [Inhibitor]: ORAL, Species: MOUSE, Strain/Sex: ICR/FEMALE, Target Tissue: Type of Lesion: FORESTOMACH: TUMOR, Dose [Carcinogen]: 1 MG IN 0.2 ML CORN OIL 2/WK FOR 4 WK STARTING ON D 8 OF EXPERIMENT, Promoter: NONE USED): 94%, 100%, -6%, not significant

CC1=C(/C=C/C(C)=C/C=C/C(C)=C/CO)C(C)(C)CCC1
tumour outcome (control, treated, inhibition, significance) (Carcinogen: BENZO[A]PYRENE, 50-32-8, Dose [Inhibitor]: 0, 4000 IU/KG DIET BEGINNING 170 D PRIOR TO CARCINOGEN AND CONTINUING FOR STUDY DURATION (STUDY DURATION: 512 D), Route [Inhibitor]: ORAL, Species: HAMSTER, Strain/Sex: SYRIAN/MALE, Target Tissue: Type of Lesion: RESPIRATORY TRACT: TUMOR, Dose [Carcinogen]: 10 MG IN SALINE PLUS 8 MG FERRIC OXIDE 1/2 WK FOR 10 WK, Promoter: NONE USED): 44%, 36%, 18%, not significant
tumour outcome (control, treated, inhibition, significance) (Carcinogen: BENZO[A]PYRENE, 50-32-8, Dose [Inhibitor]: 0, 100000 IU/KG DIET BEGINNING 170 D PRIOR TO CARCINOGEN AND CONTINUING FOR STUDY DURATION (STUDY DURATION: 512 D), Route [Inhibitor]: ORAL, Species: HAMSTER, Strain/Sex: SYRIAN/MALE, Target Tissue: Type of Lesion: RESPIRATORY TRACT: TUMOR, Dose [Carcinogen]: 10 MG IN SALINE PLUS 8 MG FERRIC OXIDE 1/2 WK FOR 10 WK, Promoter: NONE USED): 44%, 35%, 20%, not significant

CC(Cc1ccc(O)c(O)c1)C(C)Cc1ccc(O)c(O)c1 (configuration not stated)
tumour outcome (control, treated, inhibition, significance) (Carcinogen: 7,12-DIMETHYLBENZ[A]ANTHRACENE, 57-97-6, Dose [Inhibitor]: 0, 10 UMOL IN 0.2 ML ACETONE 1/D FOR 7 D BEGINNING 7 D PRIOR TO CARCINOGEN DOSE (STUDY DURATION: 17 WK), Route [Inhibitor]: DERMAL, Species: RAT, Strain/Sex: SENCAR/FEMALE, Target Tissue: Type of Lesion: SKIN: TUMOR, Dose [Carcinogen]: 40 NMOL IN 0.2 ML ACETONE ONCE, Promoter: 12-0-TETRADECANOYLPHORBOL-13-ACETATE, 16561-29-8): 100%, 100%, 0%, not significant
tumour outcome (control, treated, inhibition, significance) (Carcinogen: 7,12-DIMETHYLBENZ[A]ANTHRACENE, 57-97-6, Dose [Inhibitor]: 0, 10 UMOL IN 0.2 ML ACETONE 2/WK FOR 16 WK APPLIED 30 MIN PRIOR TO PROMOTER DOSES (STUDY DURATION: 17 WK), Route [Inhibitor]: DERMAL, Species: RAT, Strain/Sex: SENCAR/FEMALE, Target Tissue: Type of Lesion: SKIN: TUMOR, Dose [Carcinogen]: 40 NMOL IN 0.2 ML ACETONE ONCE, Promoter: 12-0-TETRADECANOYLPHORBOL-13-ACETATE, 16561-29-8): 100%, 85%, 15%, not calculated
tumour outcome (control, treated, inhibition, significance) (Carcinogen: 7,12-DIMETHYLBENZ[A]ANTHRACENE, 57-97-6, Dose [Inhibitor]: 30 UMOL APPLIED 30-40 MIN BEFORE EACH TPA TREATMENT AND CONCURRENTLY WITH TPA (STUDY DURATION: 18 WK), Route [Inhibitor]: DERMAL, Species: MOUSE, Strain/Sex: CD-1/FEMALE, Target Tissue: Type of Lesion: SKIN: PAPILLOMA, Dose [Carcinogen]: 200 NMOL ONCE, Promoter: 12-O-TETRADECANOYLPHORBOL-13-ACETATE, 16561-29-8): 96%, 50%, 48%, not calculated
tumour outcome (control, treated, inhibition, significance) (Carcinogen: DIETHYLNITROSAMINE, 55-18-5, Dose [Inhibitor]: 0, 1 MG/D IN 0.2 ML CORN OIL 3/WK FOR 16 WKS BEGINNING POST CARCINOGEN DOSE (STUDY DURATION: 24 WKS), Route [Inhibitor]: GAVAGE, Species: MOUSE, Strain/Sex: SWISS/MALE, Target Tissue: Type of Lesion: KIDNEY: RENAL CELL TUMOR, Dose [Carcinogen]: 100 MG/KG BW IN SALINE ONCE, Promoter: FERRIC NITRILOTRIACETATE, 16448-54-7): 68%, 20%, 71%, not calculated
tumour outcome (control, treated, inhibition, significance) (Carcinogen: DIETHYLNITROSAMINE, 55-18-5, Dose [Inhibitor]: 0, 2 MG/D IN 0.2 ML CORN OIL 3/WK FOR 16 WK BEGINNING POST CARCINOGEN DOSE (STUDY DURATION:24 WKS), Route [Inhibitor]: GAVAGE, Species: MOUSE, Strain/Sex: SWISS/MALE, Target Tissue: Type of Lesion: KIDNEY: RENAL CELL TUMOR, Dose [Carcinogen]: 100 MG/KG BW IN SALINE ONCE, Promoter: FERRIC NITRILOTRIACETATE, 16448-54-7): 68%, 16%, 76%, not calculated
tumour outcome (control, treated, inhibition, significance) (Carcinogen: N-BUTYL-N-(4-HYDROXYBUTYL)NITROSAMINE, 3817-11-6, Dose [Inhibitor]: 0, 0.1% IN DIET CONCURRENT WITH PROMOTER BEGINNING POST CARCINOGEN TREATMENT AND CONTINUING FOR 36 WK (STUDY DURATION: 4, Route [Inhibitor]: ORAL, Species: RAT, Strain/Sex: F344/MALE, Target Tissue: Type of Lesion: URINARY BLADDER: CARCINOMA, Dose [Carcinogen]: 0.05% IN DRINKING WATER FOR 4 WK, Promoter: SODIUM SACCHARIN, 128-44-9): 2/23 (9%), 1/22 (5%), 44%, not significant
tumour outcome (control, treated, inhibition, significance) (Carcinogen: N-BUTYL-N-(4-HYDROXYBUTYL)NITROSAMINE, 3817-11-6, Dose [Inhibitor]: 0, 0.1% IN DIET CONCURRENT WITH PROMOTER BEGINNING POST CARCINOGEN TREATMENT AND CONTINUING FOR 36 WK (STUDY DURATION: 4, Route [Inhibitor]: ORAL, Species: RAT, Strain/Sex: F344/MALE, Target Tissue: Type of Lesion: URINARY BLADDER: PAPILLOMA, Dose [Carcinogen]: 0.05% IN DRINKING WATER FOR 4 WK, Promoter: SODIUM SACCHARIN, 128-44-9): 5/23 (22%), 0/22 (0%), 100%, p<0.05
